Measured values: patent US20250163055A1, “POLYMORPH OF JAK TYROSINE KINASE INHIBITOR AND PREPARATION METHOD THEREFOR” (Prime Gene Therapeutics Co., Ltd., priority 2022, published 2025)

Tests used:
[1] = Stability of crystal form III on standing (NMR); format: physicochemical
Protocol: 15 mg of 2-{3-[3-amino-4-(7H-pyrrolo[2,3-d]pyrimidin-4-yl)-1H-pyrazol-1-yl]-1-(isopropylsulfonyl)azetidin-3-yl}acetonitrile was added to 3 mL of dioxane, then heated to 40° C. to dissolve and the obtained solution is clear. After filtration, the solution was volatilized and crystallized at 40° C. to obtain crystal form III.

[2] = Long-term (24-months) stability of crystal forms; format: physicochemical; settings: for Appearance / Content / Crystal Form / Loss on Drying / Related Substances, Most Unknown Impurity / Related Substances, Total Impurities: long-term stability
Source text: The crystals prepared in examples 1, 3 and 6 were selected, and the stability of the crystal forms 1, IIa and IIb was investigated in accordance with the stability research guidelines issued by the National Medical Product Administration. The crystals were packed in pharmaceutical low-density polyethylene bags, and 24 months long-term stability was investigated.

SMILES: CC(C)S(=O)(=O)N1CC(CC#N)(n2cc(-c3ncnc4[nH]ccc34)c(N)n2)C1 [Example 8, 2-{3-[3-amino-4-(7H-pyrrolo[2,3-d]pyrimidin-4-yl)-1H-pyrazol-1-yl]-1-(isopropylsulfonyl)azetidin-3-yl}acetonitrile crystal form III]
- crystallinity and stability (result in words) [1]: poor crystallinity and stability
- impurities generated after standing (nuclear magnetic resonance) ([1]; after standing): about 10%

SMILES: CC(C)S(=O)(=O)N1CC(CC#N)(n2cc(-c3ncnc4[nH]ccc34)c(N)n2)C1 [Example 3, 2-{3-[3-amino-4-(7H-pyrrolo[2,3-d]pyrimidin-4-yl)-1H-pyrazol-1-yl]-1-(isopropylsulfonyl)azetidin-3-yl}acetonitrile crystal form IIa]
- stability of the crystal form (result in words) ([2]; long-term stability investigation, summary): gradually absorbed water during standing and was transformed into crystal form IIb
- Appearance ([2]; 0 month): Off-white powder
- Content ([2]; 0 month): 99.8%
- Crystal Form ([2]; 0 month): IIa
- Loss on Drying ([2]; 0 month): 0.06%
- Related Substances, Most Unknown Impurity ([2]; 0 month): 0.06%
- Related Substances, Total Impurities ([2]; 0 month): 0.28%
- Appearance ([2]; 3 months): Off-white powder
- Content ([2]; 3 months): 97.6%
- Crystal Form ([2]; 3 months): IIb
- Loss on Drying ([2]; 3 months): 0.18%
- Related Substances, Most Unknown Impurity ([2]; 3 months): 0.08%
- Related Substances, Total Impurities ([2]; 3 months): 0.28%
- Appearance ([2]; 6 months): Off-white powder
- Content ([2]; 6 months): 97.8%
- Crystal Form ([2]; 6 months): IIb
- Loss on Drying ([2]; 6 months): 0.19%
- Related Substances, Most Unknown Impurity ([2]; 6 months): 0.11%
- Related Substances, Total Impurities ([2]; 6 months): 0.27%
- Appearance ([2]; 9 months): Off-white powder
- Content ([2]; 9 months): 97.9%
- Crystal Form ([2]; 9 months): IIb
- Loss on Drying ([2]; 9 months): 0.24%
- Related Substances, Most Unknown Impurity ([2]; 9 months): 0.06%
- Related Substances, Total Impurities ([2]; 9 months): 0.24%
- Appearance ([2]; 12 months): Off-white powder
- Content ([2]; 12 months): 97.8%
- Crystal Form ([2]; 12 months): IIb
- Loss on Drying ([2]; 12 months): 0.20%
- Related Substances, Most Unknown Impurity ([2]; 12 months): 0.09%
- Related Substances, Total Impurities ([2]; 12 months): 0.22%
- Appearance ([2]; 18 months): Off-white powder
- Content ([2]; 18 months): 98.0%
- Crystal Form ([2]; 18 months): IIb
- Loss on Drying ([2]; 18 months): 0.16%
- Related Substances, Most Unknown Impurity ([2]; 18 months): 0.07%
- Related Substances, Total Impurities ([2]; 18 months): 0.26%
- Appearance ([2]; 24 months): Off-white powder
- Content ([2]; 24 months): 97.8%
- Crystal Form ([2]; 24 months): IIb
- Loss on Drying ([2]; 24 months): 0.25%
- Related Substances, Most Unknown Impurity ([2]; 24 months): 0.08%
- Related Substances, Total Impurities ([2]; 24 months): 0.29%
